Results taken from patent US9994515B2, “Aryl naphthyl methanone oxime(s) and process for preparation thereof” (Council of Scientific & Industrial Research, priority 2013, dated 2018).
Structures can show the parent of a compound that is named as a salt.

What was measured:
[1] = system: PBMCs isolated from healthy individuals; experiment: MTT cytotoxicity in PBMCs from healthy controls; conditions: 1 μM, 48 h
NIH3T3 = experiment: MTT cytotoxicity assay in NIH3T3 fibroblasts; assay type: cell-based, mouse; conditions: Mus musculus, NIH3T3, 48 h, Table 1; MTT assay after 48 h treatment
Description: To consider a molecule as a candidate compound in cancer drug therapy, the test compound must have specific cytotoxicity towards the cancer cells without affecting normal cell growth. Therefore, all active compounds were assessed for toxicity in non-cancer cell-lines: mouse fibroblast cell line (NIH3T3) and monkey kidney epithelial cells (Vero). […] Therefore, based on safety index ([…]), 5d [Centans; based on IUPAC name prefixed with Central Drug Research Institute's signature (Cent)] was selected as a lead compound.

HL60 = experiment: MTT cytotoxicity assay in HL-60 cells; assay type: cell-based; conditions: Homo sapiens, HL-60, 48 h, Table 1; MTT assay after 48 h treatment
MDA-MB231 = experiment: MTT assay in MDA-MB-231 breast tumor cells; assay type: cell-based; conditions: Homo sapiens, MDA-MB-231, Table 6, 48 h, 10 point dose response
Ishikawa = experiment: MTT assay in Ishikawa endometrial adenocarcinoma cells; assay type: cell-based; conditions: Homo sapiens, Ishikawa, Table 6, 48 h, 10 point dose response
K562 = experiment: MTT cytotoxicity assay in K562 cells; assay type: cell-based; conditions: Homo sapiens, K562, 48 h, Table 1; MTT assay after 48 h treatment
DU-145 = experiment: MTT assay in DU-145 prostate tumor cells; assay type: cell-based; conditions: Homo sapiens, DU-145, Table 6, 48 h, 10 point dose response
MCF-7 = experiment: MTT assay in MCF-7 breast tumor cells; assay type: cell-based; conditions: Homo sapiens, MCF7, Table 6, 48 h, 10 point dose response

| SMILES | % cell death ([1]; healthy control sample C1) [%] | % cell death, Average ([1]; healthy control, average of C1-C3) [%] | IC50 (NIH3T3) [µM] | IC50 (HL60) [µM] | IC50 (MDA-MB231) [µM] | IC50 (Ishikawa) [µM] | IC50 (K562) [µM] | IC50 (DU-145) [µM] | IC50 (MCF-7) [µM] | melting point [°C] |
| --- | --- | --- | --- | --- | --- | --- | --- | --- | --- | --- |
| Cc1ccc(NC(=O)c2ccc(CN3CCN(C)CC3)cc2)cc1Nc1nccc(-c2cccnc2)n1 [Imatinib] | 10.51 | 16.12 | – | – | – | – | – | – | – | – |
| CSc1ccc(/C(=N/O)c2cccc3ccccc23)cc1 [Compound 4a, (4-(methylthio)phenyl)(naphthalen-1-yl)methanone oxime] | – | – | > 50 | > 50 | 20 | > 50 | > 50 | > 50 | 18 | 135 |
| CSc1ccc(/C(=N/OCCN(C)C)c2cccc3ccccc23)cc1 [Compound 5c, (4-(methylthio)phenyl)(naphthalen-1-yl)methanone O-2-(dimethylamino)ethyl oxime oxalate] | – | – | > 50 | > 50 | 12.8 | 9 | > 50 | 15 | 14 | – |
| COc1ccc(/C(=N/OCCN2CCCCC2)c2cccc3ccccc23)cc1 [Compound 6a, (4-methoxyphenyl)(naphthalen-1-yl)methanone O-2-(piperidin-1-yl)ethyl oxime oxalate] | – | – | > 50 | > 50 | > 50 | > 50 | > 50 | > 50 | 18 | – |
| CSc1ccc(/C(=N/OCCCCN2CCCC2)c2cccc3ccccc23)cc1 [Compound 8b, (4-(methylthio)phenyl)(naphthalen-1-yl)methanone O-4-(pyrrolidin-1-yl)butyl oxime] | – | – | > 50 | > 50 | > 50 | > 50 | > 50 | > 50 | > 50 | – |
| CSc1ccc(/C(=N/OCCCN2CCOCC2)c2cccc3ccccc23)cc1 [Compound 7b, (4-(methylthio)phenyl)(naphthalen-1-yl)methanone O-3-morpholinopropyl oxime] | – | – | > 50 | > 50 | > 50 | > 50 | > 50 | > 50 | > 50 | 89 |
| CCN(CC)CCO/N=C(/c1ccc(OC)cc1)c1cccc2ccccc12 [Compound 6d, (4-methoxyphenyl)(naphthalen-1-yl)methanone O-2-(diethylamino)ethyl oxime oxalate] | – | – | > 50 | > 50 | > 50 | > 50 | > 50 | > 50 | 20 | – |
| COc1ccc(/C(=N/OCCN2CCCC2)c2cccc3ccccc23)cc1 [Compound 6b, (4-methoxyphenyl)(naphthalen-1-yl)methanone O-2-(pyrrolidin-1-yl)ethyl oxime oxalate] | – | – | > 50 | > 50 | > 50 | > 50 | > 50 | > 50 | 25 | – |
| CSc1ccc(/C(=N/OCCCCN2CCCCC2)c2cccc3ccccc23)cc1 [Compound 8a, (4-(methylthio)phenyl)(naphthalen-1-yl)methanone O-4-(piperidin-1-yl)butyl oxime] | – | – | 20 | 16 | 18 | 18 | 6.34 | 7.5 | 8 | – |
| CSc1ccc(/C(=N/OCCN2CCCC2)c2cccc3ccccc23)cc1 [Compound 5b, (4-(methylthio)phenyl)(naphthalen-1-yl)methanone O-2-(pyrrolidin-1-yl)ethyl oxime oxalate] | – | – | 20 | 19 | 5.01 | 6 | 25 | 9.5 | 6.6 | – |
